± gives the expanded uncertainty stated by the source.
Assays:
[1] = refractive index (Na D-line) (dimensionless); settings: 293.15 K; 101.33 kPa; Liquid
[2] = 293.15 K; 101.33 kPa; Liquid

SMILES	refractive index [1]	mass density [2] [kg/m3]
CCCCCCO [hexan-1-ol]	1.4178 ± 0.0013	818.84 ± 0.75
CCOC(=O)OCC [diethyl carbonate]	1.3845 ± 0.0012	974.65 ± 0.29
CC(=O)c1ccccc1 [acetophenone]	1.5336 ± 0.0013	1027.93 ± 0.46

From the NIST ThermoML archive (doi:10.1021/je600519p)
